The data set in a line: gradient 5% acetonitrile 3 min, to 50% in 2 min, to 85% in 15 min, held 3 min, 100 µL/min. As to conditions: column: Zorbax Extend-C18 2.1 x 50 mm; eluents: water / acetonitrile, 0.1% formic acid. In a few lines:
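Pure standards were analyzed in mixtures of ~100 molecules using HPLC coupled to a quadrupole time-of-flight mass spectrometer, in both positive and negative ionization mode. Separation used a Zorbax Extend-C18 column (2.1 × 50 mm, 1.8 μm) at 100 μL/min, with water and acetonitrile each containing 0.1% formic acid. Dead and dwell volumes were 40 μL and 900 μL, and data were collected over 3 months. Retention time was read from computationally picked adduct peaks, each inspected manually.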
As to `O=C(Cc1c[nH]c2ccccc12)N1CCC(NS(=O)(=O)c2ccc(Cl)cc2)CC1`, the RP-LC retention time was found to be 829 s. As for `Cc1nn(C)c(C)c1CCCN(C)C(=O)COc1ccc(NC(=O)C2CC2)cn1`, the RP-LC retention time came out at 605 s.

In turn, `CC(C)CN(CC(C)C)c1nc(-c2ccc([N+](=O)[O-])cc2)nc2ccccc12` gave an RP-LC retention time of 1250 s.

For `COc1cccc(NC(=O)Nc2cc3c(cc2Oc2ccccc2)n(C)c(=O)n3C)c1`, the RP-LC retention time came to 804 s.

Turning to `O=C(NCCCN1CCOCC1)c1csc(N2CCN(c3ccccc3)CC2)n1`, the RP-LC retention time was found to be 654 s. Under `COc1ccccc1CC1C(=O)Nc2ccc(Cl)cc21` (stereo unspecified) stands 948 s. Regarding `O=S(=O)(Nc1ccc2c(c1)OCO2)c1ccc2ccccc2c1`, the RP-LC retention time came to 953 s.

In the case of `Cc1cc(N2CCCCC2C)n2nc(-c3ccccc3C)nc2n1` (stereo unspecified), the RP-LC retention time was 991 s.

Regarding `Cc1nnsc1C(=O)N1CCC(C(=O)NCC(F)(F)F)CC1`, the RP-LC retention time is 614 s. Next, `Cn1c(SCC(=O)c2ccccc2OC(F)F)nc2ccccc21`: 808 s; `CC(CC(=O)N1CCN(c2ccccc2)CC1)S(=O)(=O)c1ccc2c(c1)CCN2C(=O)C1CC1` (stereo unspecified): 866 s; `Cc1ccc(NC(=O)N2CCCC(C)(C(=O)NCc3ccccc3C)C2)c(C)c1` (stereo unspecified): 1000 s. In the case of `O=C(Cc1ccccc1Cl)Nc1ccc(-c2nc(-c3ccccc3)co2)cc1`, the RP-LC retention time is 1150 s. Next, `Cc1cc(C)n(-c2ccnc(N3CCC(C(=O)NC(C)c4ccc(F)cc4)CC3)n2)n1` (stereo unspecified): 872 s; `Nc1cccc(-c2ccc(N3CCCCC3)nn2)c1`: 570 s. `Cc1cc2c(cc1S(=O)(=O)N1CCCC1C(=O)Nc1ccc(C(C)C)cc1)OCC(=O)N2` (stereo unspecified) had an RP-LC retention time of 902 s. For the compound `Cn1c(=O)n(CCN2CCOCC2)c(=O)c2c1nc1n2CCCN1c1ccc(Br)cc1`, the RP-LC retention time was 638 s. Next, `COc1ccc(N2CCN(C(=O)C3CCCN(c4nc5ccccc5nc4OC)C3)CC2)cc1` (stereo unspecified): 1100 s. Next, `O=C(NCC1CCCCC1)c1sc2ncccc2c1-n1cccc1`: 1190 s; `CN(CC1CCOC1)C(=O)Nc1ccc(Cl)cc1F` (stereo unspecified): 728 s. As to `Cc1ccc2cc(CCC(=O)NCCCN3CCc4ccccc4C3)c(=O)[nH]c2c1`, the RP-LC retention time worked out at 614 s. Under `CCOC(=O)C1CCN(C(=O)c2nc(-c3ccnc(N4CCCC4)c3)no2)CC1` stands 673 s; under `CCCCS(=O)(=O)NCCc1noc(-c2ccccc2)n1`, 615 s; under `COC(=O)C1=CN(c2ccc(Br)cc2)c2ccccc2S1(=O)=O`, 908 s. Next, `COCCCn1cc(C(=O)N2CCCC2)c2nn(-c3ccccc3)c(=O)c-2c1`: 647 s.

Turning to `CCc1nc(-c2csc(S(=O)(=O)N3CCC(C(=O)Nc4cccc(F)c4)CC3)c2)no1`, the RP-LC retention time was 1010 s. Compound `CCCC(=O)Nc1ccc(-c2nc(Cn3cccn3)c(C)o2)cc1` yielded an RP-LC retention time of 759 s. On to `COCCn1c(CCCC(=O)NCc2cccnc2)nc2cccnc21`, for which the RP-LC retention time turned out to be 534 s. Under `O=C(Nc1ccccc1F)N1CCN(CCn2c(C(F)(F)F)nc3cccnc32)CC1` stands 624 s; under `NC1CCN(O)C1=O` (stereo unspecified), 621 s; under `COc1cccc(C2Cn3nnc(-c4nc(-c5ccsc5)no4)c3CO2)c1` (stereo unspecified), 1070 s.

`c1ccc2c(CC3=NCCN3)cccc2c1`: the RP-LC retention time came out at 619 s. In turn, `Cn1cc(C(=O)Nc2cccc(Cl)c2)c2nn(-c3ccccc3)c(=O)c-2c1` displayed an RP-LC retention time of 1040 s.

Turning to `CC(=O)N1CCC(CC(=O)N2CCc3nn(CC4CC4)c(=O)n3CC2)CC1`, the RP-LC retention time was 596 s.

`CC(C)N1CCCn2cc(S(=O)(=O)NC3CCCCCC3)cc2C1=O` had an RP-LC retention time of 817 s.

Turning to `COc1ccc(CN2C=C(C(=O)OCc3nc(-c4cccc(C)c4)no3)C(C)=NS2(=O)=O)cc1`, the RP-LC retention time was 1170 s. For the compound `C=CCNC(=O)c1nc(C(=O)N2CCc3ccccc3C2)cs1`, the RP-LC retention time was found to be 811 s. `COc1ccc(NC(=O)Nc2cccc(-c3ccc(N4CCCCC4)nn3)c2)c(OC)c1` came in with an RP-LC retention time of 719 s. The compound `O=C(NCc1ccc2c(c1)OCO2)C(=O)c1cccn1Cc1ccccc1` gave an RP-LC retention time of 980 s. Under `NC(=O)c1cc(N2CCOCC2)nc2ccc(F)cc12` stands 688 s; under `CC(C)CNC(=O)N1CCCN(S(C)(=O)=O)CC1`, 615 s; under `Cn1c(N)c(S(=O)(=O)N2CCN(c3ccccc3F)CC2)c(=O)n(C)c1=O`, 701 s. Under `Cc1cc(Cl)ccc1S(=O)(=O)N1CCC(F)(c2nc(CC(C)C)no2)CC1` stands 1260 s; under `C#CC(c1ccccc1)(c1ccccc1)n1ccnc1`, 739 s; under `CC(=O)N1CCc2cc(N3CC(C(=O)Nc4ccc(N5CCOCC5)cc4)CC3=O)ccc21` (stereo unspecified), 629 s. Next, `Cc1ccc(OCC(=O)Nc2nc(-c3ccccc3)cs2)c(Br)c1`: 1310 s; `COc1ccc(OC)c(NC(=O)N2CCN(c3cc(C)nc(N4CCCC4)n3)CC2)c1`: 676 s.

With `Fc1cccc2sc(NCc3ccccn3)nc12`, the RP-LC retention time stood at 594 s. Next, `COc1ccc(Cc2nc(-c3cccc(-c4ccn[nH]4)c3)no2)c(Cl)c1`: 1000 s; `COc1cc(OC)cc(C(=O)N2CCC3(CC2)NC(=O)c2cc(Cl)ccc2N3C)c1`: 826 s. Under `CSc1nnc(-c2nn(C)c3c2CN(C(=O)c2ccc(Br)cc2)CC3)n1C` stands 753 s; under `Cc1ccc(-c2nc3ncccn3c2NC(=O)c2cccc(C(F)(F)F)c2)cc1`, 838 s. Under `O=C(Nc1ccc2c(c1)OCCO2)c1noc2c1CCCC2` stands 870 s; under `CCCN1C(=O)c2cc(S(=O)(=O)Nc3cc(F)cc(F)c3)ccc2Oc2cccnc21`, 1080 s; under `CCCN1CCCCc2cc(C(=O)NC)sc21`, 861 s. As to `Cc1cccc(N2CCN(C(=O)C3CCc4sc(C(=O)N(C)C)cc4C3)CC2)c1` (stereo unspecified), the RP-LC retention time worked out at 867 s. Under `O=C(NC1CCCCCCC1)C1CCN(C(=O)c2cc(-c3ccncc3)n[nH]2)CC1` stands 648 s. Under `Cc1ccc(C(=O)N2CCC3(C2)C(=O)N(C)c2ccccc23)cc1` (stereo unspecified) stands 792 s.

Compound `CCOC(=O)c1c(C)oc2ncnc(N3CCN(c4ccccn4)CC3)c12` yielded an RP-LC retention time of 628 s.

Turning to `CCN1C(=O)CN(C(=O)c2ccco2)CC12CCOCC2`, the RP-LC retention time is 610 s. Under `O=C(NCCCN1CCCC1)C1CCN(c2nc3cccnc3s2)CC1` stands 585 s.

The record behind these values is the METLIN SMRT retention time set (Domingo-Almenara et al. 2019).
